Where “and” joins values, the source holds several entries; their conditions need not be identical. Equal entries are not always repeated. Where two headings read alike, the source gives them in different places.
Tests used:
[1] = test system: HIVpro1-FT (anti-parallel DNA G4); experiment: FRET melting assay, HIVpro1-FT; type: binding, HIV-1; conditions: ligand 1 μM, DNA 0.2 μM
Method: (§1) Doubly labelled oligonucleotides with fluorescein and TAMRA were purchased lyophilized and RP-cartridge purified from Eurogentec (Kanaka Eurogentec, Seraing, Belgium). FRET melting experiments were run on Stratagene Mx3005P real-time PCR equipment in 96-well plates on the DNA sequences listed Table 1. Experiments were performed in 10 mM lithium cacodylate buffer (pH 7.2) and 10 mM KCl and 90 mM LiCl as previously described.[45,46] The DNA concentration was 0.2 μM. The stabilization (ΔT1/2) induced by compounds was calculated as the difference between the Tm of the nucleic acid alone and that measured with a ligand concentration of 1 μM. Data are presented as averages of three independent measurements, each conducted in duplicate (λexc = 492 nm, λem = 516 nm, T interval = 25–95 °C, ramp: 25 °C for 5 min, then 1 °C min^−1, measurements every 1 °C, 8× magnification of the fluorescence signal). The G4 selectivity of the ligands with respect to the duplex was evaluated by determining the Tm values in the presence of 0, 3 or 10 μM of the duplex competitor ds26.
(§2) In this assay, we performed thermal denaturation experiments by heating and recording the fluorescence of DNA oligonucleotides doubly labelled with fluorescein and TAMRA fluorophores (Fig. 3 and S7). Ligand binding to the G4 stabilises the structure, resulting in an increase in the half-dissociation temperature of the structure (ΔT1/2). As a first approximation, the higher the ΔT1/2 (ΔT1/2 higher), the higher the affinity of the ligand for the target.[45]
(§3) The fluorescently labeled oligonucleotides were dissolved at a concentration of 0.2 μM in 10 mM lithium cacodylate buffer (pH 7.2) with 10 mM KCl and 90 mM LiCl. […] E) Radar plot representation that summarizes the FRET-melting results (ΔT1/2 (°C)) for each ligand in the presence of HIVpro1-FT (green), HIVpro2-FT (grey), LTR4-FT (bleu), and Htel-FT (red). Data are the results of at least three independent experiments in which each data point was performed in duplicate.

DK100 DNA duplex = experiment: Native ESI-MS, DK100; type: binding; conditions: 10 μM DNA, 20 μM ligand, 100 mM ammonium acetate
Method: Oligonucleotides were purchased lyophilized and RP-cartridge purified from Eurogentec (Kanaka Eurogentec, Seraing, Belgium), then buffer exchanged with ammonium acetate (5 M; Sigma-Aldrich, Saint-Quentin-Fallavier, France) using Amicon Ultra (3 K cut-off; Merck Millipore, Cork, Ireland). The concentrations of the initial stock solutions of DNA/RNA (∼1 mM) were measured by UV absorbance at 260 nm. Sample solutions were prepared by diluting the appropriate volume of oligonucleotide stock solutions to reach 10 μM of DNA/RNA and 20 μM of ligand, in 100 mM ammonium acetate. The solutions were incubated for 16 h at 4 °C before analysis by mass spectrometry. […] These parameters ensured a good signal intensity without disrupting noncovalent complexes, which was verified using d[G4T4G4]2 as a control. The presented spectra of all DNA/RNA used in this work (Fig. 5, S9 and S10) result from 8 min accumulations. The abundance of each species, M, M + 1L, M + 2L and M + 3L complexes, where M is a monomer oligonucleotide and L is a ligand, was determined from their peak area signals (A), from the sum of the −4, −5 and −6 charge states for DNA and from the sum of the −5, −6 and −7 charge states for RNA, assuming that their response factors are equal. The molar concentrations were then calculated knowing the total amount of oligonucleotide [M]tot: [drawing 1] [drawing 2] [drawing 3] [drawing 4] The concentration of the free ligand, [L]free, was determined from its total concentration [L]tot:[L]free = [L]tot − [M + 1L] − 2[M + 2L] − 3[M + 3L]Apparent consecutive dissociation constants (Kd1, Kd2 and Kd3) were calculated by using the following equations: [drawing 5] [drawing 6] [drawing 7]
We further analysed the formation of the DBA/G4 complexes by native electrospray ionization mass spectrometry (ESI-MS). We initially attempted to analyze DBA binding to the primary G4 targets from HIV-1 (HIVpro1, HIVpro2, LTR4 and rLTR4 RNA). […] These sequences span the major G4 topological classes and provide a representative assessment of DBA binding across diverse G4 architectures. We also included two DNA duplex controls (DK100 and DK66) to evaluate binding selectivity. This ESI-MS approach enables direct determination of binding stoichiometry, quantification of each species in solution, and calculation of dissociation constants (Kd) from the relative abundances of free and bound forms.[88,97]
In the ESI-MS conditions, the rLTR4 G4 (10 μM) forms a dimeric structure. […] Among the six DNA and RNA tested here (Fig. 5B, S9 and S10) only rLTR4 presented 1 : 3 G4/DBA complexes. In all cases but one, the 1 : 1 stoichiometry represents the major species in solution while for rLTR4 it is the 1 : 2 (green). […] For TG4T tetramolecular G4 or G4T4G4 bimolecular G4 only 1 : 1 and 1 : 2 complexes were detected (Fig. S9A and S10A). […] The weakest binding was obtained for the G4T4G4 antiparallel G4 and Htel sequence with Kd1s ranging from 11 μM for to 500 μM (Table 2).

HIV-1 = experiment: microbe, parasite or virus in culture; conditions: Human immunodeficiency virus 1, HeLaP4, read-out: IC50 (infectivity inhibition), native HIV-1, MOI 1, compound added 30 min before infection, 24 h, β-gal reporter
[2] = test system: Htel-FT (human telomeric DNA G4); experiment: FRET melting assay, Htel-FT; type: binding; conditions: ligand 1 μM, DNA 0.2 μM
Method: as §1, §2, §3

## COc1ccc2c(ccc3c2cc2c4ccc(OC)cc4ccc2[n+]3-c2ccc([N+](=O)[O-])cc2)c1 [DBA4]
[1]; +10µM ds26
  ΔT1/2 HIVpro1: 5.1±0.5 °C
[1]; No ds26
  ΔT1/2 HIVpro1: 7.0±2.0 °C and 7 °C
DK100 DNA duplex; read-out: Kd2 DK100
  Kd: 142 µM
HIV-1
  IC50: 1 µM
[2]; +10µM ds26
  ΔT1/2 Htel: 14±0.3 °C

## c1ccc(-[n+]2c3ccc4ccccc4c3cc3c4ccccc4ccc32)cc1 [DBA5]
[1]; +10µM ds26
  ΔT1/2 HIVpro1: 3.6±0.04 °C
[1]; No ds26
  ΔT1/2 HIVpro1: 5.0±0.03 °C
DK100 DNA duplex; read-out: Kd1 DK100
  Kd: 40 µM
DK100 DNA duplex; read-out: Kd2 DK100
  Kd: 67.7 µM
[2]; +10µM ds26
  ΔT1/2 Htel: 9.0±0.1 °C
[2]; No ds26
  ΔT1/2 Htel: 12.2±0.1 °C

## COc1ccc2c(ccc3c2cc2c4ccc(OC)cc4ccc2[n+]3-c2ccccc2)c1 [DBA1]
[1]; +10µM ds26
  ΔT1/2 HIVpro1: 4.4±0.7 °C
[1]; No ds26
  ΔT1/2 HIVpro1: 6.9±0.04 °C
DK100 DNA duplex; read-out: Kd1 DK100
  Kd: 1030 µM
HIV-1
  IC50: 0.9 µM
[2]; +10µM ds26
  ΔT1/2 Htel: 13±0.5 °C
[2]; No ds26
  ΔT1/2 Htel: 17±0.2 °C

## COC(=O)c1ccc(-[n+]2c3ccc4cc(OC)ccc4c3cc3c4ccc(OC)cc4ccc32)cc1 [DBA2]
[1]; +10µM ds26
  ΔT1/2 HIVpro1: 3.9±0.2 °C
[1]; No ds26
  ΔT1/2 HIVpro1: 5.6±0.3 °C and 5.6 °C
DK100 DNA duplex; read-out: Kd1 DK100
  Kd: 833 µM
HIV-1
  IC50: 3.1 µM
[2]; +10µM ds26
  ΔT1/2 Htel: 12±0.6 °C

## COc1ccc(-[n+]2c3ccc4cc(OC)ccc4c3cc3c4ccc(OC)cc4ccc32)cc1 [DBA3]
[1]; +10µM ds26
  ΔT1/2 HIVpro1: 5.0±0.1 °C
[1]; No ds26
  ΔT1/2 HIVpro1: 6.3±0.7 °C and 6.3 °C
DK100 DNA duplex; read-out: Kd1 DK100
  Kd: 156 µM
DK100 DNA duplex; read-out: Kd2 DK100
  Kd: 618 µM
HIV-1
  IC50: 4.3 µM
[2]; +10µM ds26
  ΔT1/2 Htel: 14±0.1 °C

From paper PMC13334477 (RSC Medicinal Chemistry, 2026)
